We go through three compounds from BindingDB's records for doi:10.1016/j.bmcl.2014.05.074 (Seoul National University, 2014).

The target of the assay is Transient receptor potential cation channel subfamily V member 1 (Homo sapiens, UniProt Q8NER1). In words: Antagonist activity at human TRPV1 expressed in CHO cells assessed as inhibition of capsaicin-induced increase in intracellular Ca2+ level by FLIPR assay.
Sequence of Transient receptor potential cation channel subfamily V member 1 (Q8NER1 whole entry): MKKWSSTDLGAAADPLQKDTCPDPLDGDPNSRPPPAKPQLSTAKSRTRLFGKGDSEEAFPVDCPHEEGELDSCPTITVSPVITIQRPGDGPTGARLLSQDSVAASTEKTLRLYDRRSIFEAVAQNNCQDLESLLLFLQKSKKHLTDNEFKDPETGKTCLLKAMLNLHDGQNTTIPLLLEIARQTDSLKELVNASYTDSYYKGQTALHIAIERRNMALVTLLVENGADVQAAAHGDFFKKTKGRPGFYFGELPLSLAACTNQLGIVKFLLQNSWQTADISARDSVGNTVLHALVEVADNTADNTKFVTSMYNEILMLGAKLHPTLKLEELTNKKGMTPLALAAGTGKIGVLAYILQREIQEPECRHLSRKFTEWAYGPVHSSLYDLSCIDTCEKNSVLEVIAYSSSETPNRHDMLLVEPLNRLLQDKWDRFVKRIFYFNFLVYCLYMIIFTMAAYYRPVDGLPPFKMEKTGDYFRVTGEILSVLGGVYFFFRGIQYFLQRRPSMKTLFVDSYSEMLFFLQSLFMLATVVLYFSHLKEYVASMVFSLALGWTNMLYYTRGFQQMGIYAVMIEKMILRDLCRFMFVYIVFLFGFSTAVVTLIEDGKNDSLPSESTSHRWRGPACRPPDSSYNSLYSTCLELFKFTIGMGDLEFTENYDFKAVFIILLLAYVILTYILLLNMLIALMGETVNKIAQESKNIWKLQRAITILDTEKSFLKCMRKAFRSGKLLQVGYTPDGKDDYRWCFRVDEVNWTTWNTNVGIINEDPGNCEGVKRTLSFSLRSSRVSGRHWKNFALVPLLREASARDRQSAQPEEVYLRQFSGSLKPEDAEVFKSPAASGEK
`CCC1CC=C(c2nc(C(F)(F)F)ccc2CNC(=O)C(C)c2ccc(NS(C)(=O)=O)c(F)c2)CC1` (stereo not drawn): the Ki (as a rule, a measure of affinity in units of concentration, obtained from inhibition or displacement) stood at 100 pM. With `CC(C(=O)NCc1ccc(C(F)(F)F)nc1C1=C[C@H](C)CCC1)c1ccc(NS(C)(=O)=O)c(F)c1` (stereo partly drawn), the Ki amounted to 100 pM. For the compound `CC1CC=C(c2nc(C(F)(F)F)ccc2CNC(=O)C(C)c2ccc(NS(C)(=O)=O)c(F)c2)CC1` (stereo not drawn), the Ki turned out to be 300 pM.
